Values joined by “and” are separate entries in the source; they are usually repeats but may differ in a detail not shown here. Equal entries are not always repeated. Inconclusive results and toxic doses are left out.
System: P388 leukemia ip, CD2F1 mice, survival T/C
Test: NCI In Vivo Anticancer Drug Screen. Data for tumor model P388 Leukemia (intraperitoneal) in CD2F1 (CDF1) mice
Details: endpoint: median survival time, higher = longer survival
In short: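 Mice carrying the transplanted tumor received test compound or vehicle. Survival was recorded in each group, and the value is the treated-group measurement divided by that of the vehicle-treated control group.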

[1] = dose: 50.0 mg/kg/injection, schedule: Q01DX005 (ip), vehicle: saline with Tween-80
[2] = dose: 100.0 mg/kg/injection, schedule: Q01DX009 (ip), vehicle: saline with Tween-80
[3] = dose: 50.0 mg/kg/injection, schedule: Q01DX009 (ip), vehicle: Klucel (hydroxypropylcellulose) (HPC)
[4] = dose: 100.0 mg/kg/injection, schedule: Q01DX005 (ip), vehicle: saline with Tween-80
[5] = dose: 200.0 mg/kg/injection, schedule: Q01DX005 (ip), vehicle: saline with Tween-80
[6] = dose: 50.0 mg/kg/injection, schedule: Q01DX005 (ip), vehicle: Klucel (hydroxypropylcellulose) (HPC)
[7] = dose: 100.0 mg/kg/injection, schedule: Q01DX005 (ip), vehicle: Klucel (hydroxypropylcellulose) (HPC)
[8] = dose: 200.0 mg/kg/injection, schedule: Q01DX005 (ip), vehicle: Klucel (hydroxypropylcellulose) (HPC)
[9] = dose: 6.25 mg/kg/injection, schedule: Q04DX003 (ip), vehicle: saline
[10] = dose: 12.5 mg/kg/injection, schedule: Q01DX009 (ip), vehicle: Klucel (hydroxypropylcellulose) (HPC)
[11] = dose: 25.0 mg/kg/injection, schedule: Q01DX009 (ip), vehicle: Klucel (hydroxypropylcellulose) (HPC)
[12] = dose: 60.0 mg/kg/injection, schedule: Q01DX005 (ip), vehicle: saline with Tween-80
[13] = dose: 120.0 mg/kg/injection, schedule: Q01DX005 (ip), vehicle: saline with Tween-80
[14] = dose: 240.0 mg/kg/injection, schedule: Q01DX005 (ip), vehicle: saline with Tween-80

CN1NC(c2ccccc2)=C(C#N)C(=O)CC1c1ccc(Cl)cc1 (configuration not stated)
T/C (dose: 3.75 mg/kg/injection, schedule: Q01DX005 (ip), vehicle: saline with Tween-80): 117 % of control | T/C (dose: 7.5 mg/kg/injection, schedule: Q01DX005 (ip), vehicle: saline with Tween-80): 100 % of control and 101 % of control and 113 % of control

Cc1ccc2cccnc2c1NCCCCCNC(C)C
T/C (dose: 12.5 mg/kg/injection, schedule: Q01DX005 (ip), vehicle: saline with Tween-80): 97 % of control | T/C (dose: 25.0 mg/kg/injection, schedule: Q01DX005 (ip), vehicle: saline with Tween-80): 100 % of control | T/C [1]: 100 % of control and 97 % of control

CC1=C(C#N)C(C)(C)C(C#N)=C(C)N1C
T/C (dose: 25.0 mg/kg/injection, schedule: Q01DX009 (ip), vehicle: other): 110 % of control | T/C (dose: 50.0 mg/kg/injection, schedule: Q01DX009 (ip), vehicle: other): 111 % of control | T/C (dose: 50.0 mg/kg/injection, schedule: Q01DX009 (ip), vehicle: saline with Tween-80): 102 % of control | T/C (dose: 100.0 mg/kg/injection, schedule: Q01DX009 (ip), vehicle: other): 121 % of control | T/C [2]: 98 % of control

COc1ccc(C2NC(=S)NC(=O)C2C#N)cc1OC (configuration not stated)
T/C [3]: 98 % of control | T/C (dose: 100.0 mg/kg/injection, schedule: Q01DX009 (ip), vehicle: Klucel (hydroxypropylcellulose) (HPC)): 98 % of control | T/C (dose: 200.0 mg/kg/injection, schedule: Q01DX009 (ip), vehicle: Klucel (hydroxypropylcellulose) (HPC)): 95 % of control

C/C(=N\NC(=S)N1CCCCCC1)c1ccccn1
T/C (dose: 0.78 mg/kg/injection, schedule: Q01DX009 (ip), vehicle: saline with Tween-80): 99 % of control and 96 % of control | T/C (dose: 1.56 mg/kg/injection, schedule: Q01DX009 (ip), vehicle: saline with Tween-80): 99 % of control and 103 % of control | T/C (dose: 3.12 mg/kg/injection, schedule: Q01DX009 (ip), vehicle: saline with Tween-80): 90 % of control | T/C (dose: 3.13 mg/kg/injection, schedule: Q01DX009 (ip), vehicle: saline with Tween-80): 121 % of control and 95 % of control | T/C (dose: 6.25 mg/kg/injection, schedule: Q01DX009 (ip), vehicle: saline with Tween-80): 100 % of control and 112 % of control and 117 % of control | T/C (dose: 12.5 mg/kg/injection, schedule: Q01DX009 (ip), vehicle: saline with Tween-80): 103 % of control

Cc1cnc(C#N)c(Cl)n1
T/C [2]: 100 % of control | T/C (dose: 100.0 mg/kg/injection, schedule: Q04DX003 (ip), vehicle: saline with Tween-80): 110 % of control | T/C (dose: 200.0 mg/kg/injection, schedule: Q01DX009 (ip), vehicle: saline with Tween-80): 115 % of control | T/C (dose: 200.0 mg/kg/injection, schedule: Q04DX003 (ip), vehicle: saline with Tween-80): 110 % of control | T/C (dose: 400.0 mg/kg/injection, schedule: Q04DX003 (ip), vehicle: saline with Tween-80): 100 % of control

CCOC(=O)N1C=C(C(=O)OC)C(c2ccccc2)C(C(=O)OC)=C1
T/C [1]: 95 % of control | T/C [4]: 106 % of control | T/C [5]: 97 % of control

COc1ccc(C=C2C(=O)N(c3ccccc3)C(=S)N(c3ccccc3)C2=O)cc1
T/C [6]: 94 % of control | T/C [7]: 90 % of control | T/C [8]: 88 % of control

O=C1CC2COc3ccc(O)cc3C2=NN1c1ccccc1 (configuration not stated)
T/C [1]: 94 % of control | T/C [4]: 98 % of control | T/C [5]: 94 % of control

Cc1nn(C(N)=S)c(C)c1N=Nc1cccc(Cl)c1Cl
T/C (dose: 100.0 mg/kg/injection, schedule: Q04DX002 (ip), vehicle: Klucel (hydroxypropylcellulose) (HPC)): 100 % of control | T/C (dose: 200.0 mg/kg/injection, schedule: Q04DX002 (ip), vehicle: Klucel (hydroxypropylcellulose) (HPC)): 96 % of control | T/C (dose: 400.0 mg/kg/injection, schedule: Q04DX002 (ip), vehicle: Klucel (hydroxypropylcellulose) (HPC)): 92 % of control

CCCC1C(CC)C=C(CC)C(O)C1(CC)CO (configuration not stated)
T/C [1]: 97 % of control | T/C [4]: 97 % of control | T/C [5]: 97 % of control

CSc1ccnc2cc(Cl)ccc12
T/C [6]: 96 % of control | T/C [7]: 106 % of control | T/C [8]: 110 % of control

COCCOP(=O)(N1CC1)N1CC1
T/C [9]: 118 % of control | T/C (dose: 25.0 mg/kg/injection, schedule: Q01DX009 (ip), vehicle: saline): 181 % of control | T/C (dose: 25.0 mg/kg/injection, schedule: Q04DX003 (ip), vehicle: saline): 177 % of control | T/C (dose: 33.0 mg/kg/injection, schedule: Q04DX003 (ip), vehicle: saline): 150 % of control | T/C (dose: 50.0 mg/kg/injection, schedule: Q01DX009 (ip), vehicle: saline): 122 % of control | T/C (dose: 50.0 mg/kg/injection, schedule: Q04DX003 (ip), vehicle: saline): 175 % of control and 190 % of control | T/C (dose: 75.0 mg/kg/injection, schedule: Q04DX003 (ip), vehicle: saline): 120 % of control

Nc1nnc(-c2ccccc2)nn1
T/C (dose: 50.0 mg/kg/injection, schedule: Q01DX005 (ip), vehicle: Klucel + Tween-80): 91 % of control | T/C (dose: 100.0 mg/kg/injection, schedule: Q01DX005 (ip), vehicle: Klucel + Tween-80): 95 % of control | T/C (dose: 200.0 mg/kg/injection, schedule: Q01DX005 (ip), vehicle: Klucel + Tween-80): 100 % of control

CCOC(=O)C(CCc1ccc(N(CCCl)CCCl)cc1)(NC(C)=O)C(=O)OCC
T/C [10]: 109 % of control | T/C [11]: 111 % of control | T/C [3]: 116 % of control

O=C1c2ccccc2C(=O)N1CCc1ncc[nH]1
T/C [12]: 99 % of control | T/C [13]: 99 % of control | T/C [14]: 100 % of control

CC(=O)c1c(O)c(C)cc2c1CCc1ccc(O)c(C)c1-2
T/C (dose: 2.0 mg/kg/injection, schedule: Q01DX009 (ip), vehicle: Klucel (hydroxypropylcellulose) (HPC)): 116 % of control | T/C (dose: 4.0 mg/kg/injection, schedule: Q01DX009 (ip), vehicle: Klucel (hydroxypropylcellulose) (HPC)): 100 % of control | T/C (dose: 8.0 mg/kg/injection, schedule: Q01DX009 (ip), vehicle: Klucel (hydroxypropylcellulose) (HPC)): 107 % of control | T/C (dose: 16.0 mg/kg/injection, schedule: Q01DX009 (ip), vehicle: Klucel (hydroxypropylcellulose) (HPC)): 108 % of control

c1csc(C[N+]23CN4CN(CN(C4)C2)C3)c1
T/C (dose: 130.0 mg/kg/injection, schedule: Q01DX009 (ip), vehicle: saline): 109 % of control | T/C (dose: 200.0 mg/kg/injection, schedule: Q01DX009 (ip), vehicle: saline): 118 % of control | T/C (dose: 300.0 mg/kg/injection, schedule: Q01DX009 (ip), vehicle: saline): 123 % of control

COc1cccc2c1C(=O)c1c(O)c3c(c(O)c1C2=O)[C@@H](OC)[C@@](O)(C(C)=O)C[C@@H]3OC1CC(N)C(O)C(C)O1 (some centres not stated)
T/C (dose: 3.13 mg/kg/injection, schedule: Q04DX003 (ip), vehicle: saline): 110 % of control | T/C [9]: 115 % of control

O=C(O)CC(=O)N=c1snc(Nc2ccccc2)n1-c1ccccc1
T/C (dose: 6.25 mg/kg/injection, schedule: Q01DX009 (ip), vehicle: Klucel (hydroxypropylcellulose) (HPC)): 101 % of control | T/C [10]: 102 % of control | T/C [11]: 99 % of control

CCOC(=O)c1cn(CC)c2cc(-n3cccc3)c(F)cc2c1=O
T/C [12]: 98 % of control | T/C [13]: 97 % of control | T/C [14]: 94 % of control

CCCCCCCCOC(=O)Nc1ccc(OCC)cc1
T/C (dose: 0.75 mg/kg/injection, schedule: Q01DX009 (ip), vehicle: saline with Tween-80): 92 % of control | T/C (dose: 1.5 mg/kg/injection, schedule: Q01DX009 (ip), vehicle: saline with Tween-80): 97 % of control | T/C (dose: 3.0 mg/kg/injection, schedule: Q01DX009 (ip), vehicle: saline with Tween-80): 104 % of control

O=P(CCCCP(=O)(c1ccccc1)c1ccccc1)(c1ccccc1)c1ccccc1.[Cl][Sn]([Cl])([c]1ccccc1)[c]1ccccc1
T/C (dose: 1.56 mg/kg/injection, schedule: Q01DX005 (ip), vehicle: Klucel (hydroxypropylcellulose) (HPC)): 114 % of control | T/C (dose: 3.12 mg/kg/injection, schedule: Q01DX005 (ip), vehicle: Klucel (hydroxypropylcellulose) (HPC)): 114 % of control | T/C (dose: 12.5 mg/kg/injection, schedule: Q01DX005 (ip), vehicle: Klucel (hydroxypropylcellulose) (HPC)): 115 % of control

CC(=O)[C@@H]1C[C@H]1C(=O)c1ccccc1
T/C (dose: 67.5 mg/kg/injection, schedule: Q04DX002 (ip), vehicle: Klucel (hydroxypropylcellulose) (HPC)): 96 % of control | T/C (dose: 135.0 mg/kg/injection, schedule: Q04DX002 (ip), vehicle: Klucel (hydroxypropylcellulose) (HPC)): 94 % of control | T/C (dose: 270.0 mg/kg/injection, schedule: Q04DX002 (ip), vehicle: Klucel (hydroxypropylcellulose) (HPC)): 96 % of control
